In patent US9244074B2 (University of Hawaii, priority 2011, dated 2016):
*1 amine or outer side, *2 acyl side, *3 side chain or, on linkers, in order; H or OH if unused. Where a SMILES comes first, the peptide text is derived from it. Bridges are numbered along the chain shown (N, C = ends). Roman numbers before positions name the chains, in order. [ ]: non-standard residue; d: D form. Actinocin(9to1) = Cc1c2oc3c(C)ccc(C(=O)[*:1])c3nc-2c(C(=O)[*:2])c(N)c1=O; NMeV = CN[C@H](C(=O)O)C(C)C; Sar = CNCC(=O)O

Tests used:
[1] = system: human mesothelial (HM) cells; assay: HMGB1 localization in HM cells by immunofluorescence staining; assay type: cell-based; conditions: 6 hrs exposure; H2O2 100 μM, actinomycin D 0.1 μM
Protocol: After fixation and permeabilization, cells were incubated with HMGB1 antibody (BD Bioscience Pharmingen) and a fluorescein-conjugated secondary antibody (Chemicon, Temecula). Nuclei were stained with DAPI.

macrophages = assay: TNF-α secretion by macrophages given culture medium from exposed HM; assay type: cell-based, human; conditions: concentrated HM culture medium added to macrophages
Protocol: Expression levels of HMGB1 and its receptors RAGE, TLR2 and TLR4 in a panel of 8 MM cell lines and 8 distinct primary HM cultures were determined Primary human mesothelial cells (HM) were obtained from pleural effusions of eight different patients, pathologically diagnosed free of malignancy at the Queen's Medical Center, Honolulu, Hi. […] HM were cultured in Dulbecco's Modified Eagle Medium (DMEM) (Mediatech Inc., Manassas, Va.) containing 20% fetal bovine serum (FBS) (Gibco, Carlsbad, Calif.) and penicillin-streptomycin (100 units/ml penicillin G and 100 μg/ml streptomycin sulfate) (GIBCO), and were used between second and fifth passages. THP-1 human monocytes (ATCC, Manassas, Va.) were differentiated into macrophages by phorbol 12-myristate 13-acetate (TPA). The pleural malignant mesothelioma (MM) cell lines were established from surgically resected human MM specimens and used comparatively in our studies. REN cells were provided by Dr. Steven Albelda (University of Pennsylvania, Philadelphia, Pa.), while all other cell lines used in this study were provided by Dr. Harvey I. Pass (NYU School of Medicine, New York, N.Y.). MM cells were maintained in DMEM containing 10% FBS. All cells were cultured at 37° C. in a humidified atmosphere with 5% CO2 and grown to approximately 80-90% confluency. […]
Next, it was determined whether the release of HMGB1 was linked to an inflammatory response. […]

With `OO` [H2O2] the “HMGB1 localization in HM cells” value [1] was “translocated from the nucleus into the cytosol”.

With `Cc1c2oc3c(C)ccc(C(=O)N[C@@H]4C(=O)N[C@H](C(C)C)C(=O)N5CCC[C@H]5C(=O)N(C)CC(=O)N(C)[C@@H](C(C)C)C(=O)O[C@@H]4C)c3nc-2c(C(=O)N[C@@H]2C(=O)N[C@H](C(C)C)C(=O)N3CCC[C@H]3C(=O)N(C)CC(=O)N(C)[C@@H](C(C)C)C(=O)O[C@@H]2C)c(N)c1=O` [actinomycin D] (I: T[dV]P[Sar][NMeV] / II: T[dV]P[Sar][NMeV]; ester I:1-I:C, II:1-II:C; linker I:N-II:N via Actinocin(9to1)) the “macrophage secretion of TNF-α induced by culture medium from HM exposed to the substance” value (macrophages) was “did not induce TNF-α secretion” and the “HMGB1 localization in HM cells” value [1] was “remained within the nucleus”.
